From PMC12109412

experiment: Single-molecule FRET cyclization (looping) of surface-immobilised 83 bp duplex with complementary 10-nt 5' overhangs; noncovalent ring closure by sticky-end hybridisation triggered by 1 M NaCl (no ligase); settings: the molecule shown is the open-chain precursor, water, 50 mM Tris-HCl, 3 mM Trolox, glucose oxidase/catalase oxygen scavenger, other

**Q.** For “DNA 5'-Cy5-acggattctgtgaaacggtggaggtgaggaT(biotin)agtcatgggtcaattagaagtcataggagaagtattaagggagtctatattgaggtactagc-3' / DNA 5'-Cy3-cagaatccgtgctagtacctcaatatagactcccttaatacttctcctatgacttctaattgacccatgactatcctcacctccaccgtttca-3'”, which ring closure, halflife is on record?
**A.** The ring closure, halflife was 31.5 min.

**Q.** Which ring closure, halflife does the source give for “DNA 5'-Cy5-acggattctgtgaaacggtggaggtgaggaT(biotin)agtcatgggtcaattagaagtcataggagaagtattaagggagtctatattgaggtactagc-3' / RNA 5'-Cy3-cagaauccgugcuaguaccucaauauagacucccuuaauacuucuccuaugacuucuaauugacccaugacuauccucaccuccaccguuuca-3'” here?
**A.** The ring closure, halflife was 20.4 min.

**Q.** Which ring closure, halflife does the source give for “DNA 5'-Cy5-agagaaagaggcaaaaggggacggaagggaT(biotin)ggagccagaggagggggtgacagttgagtctcagccacaggtgaaggtggagccactggagg-3' / RNA 5'-Cy3-cucuuucucuccuccaguggcuccaccuucaccuguggcugagacucaacugucacccccuccucuggcuccaucccuuccguccccuuuugc-3'” here?
**A.** Its ring closure, halflife is 26.1 min.

**Q.** For “DNA 5'-Cy5-cctccagtggctccaccttcacctgtggcT(biotin)gagactcaactgtcaccccctcctctggctccatcccttccgtccccttttgcctctttctct-3' / RNA 5'-Cy3-ccacuggaggagagaaagaggcaaaaggggacggaagggauggagccagaggagggggugacaguugagucucagccacaggugaagguggag-3'”, which ring closure, halflife is on record?
**A.** The ring closure, halflife was 10.8 min.

**Q.** Which ring closure, halflife does the source give for “DNA 5'-Cy5-gaagaagaggaaaaaagaaaagggacagaT(biotin)ggcaatgatggagccagggacggaggcgatggagccagtggagccggagatgaagcctctgga-3' / RNA 5'-Cy3-ccucuucuucuccagaggcuucaucuccggcuccacuggcuccaucgccuccgucccuggcuccaucauugccaucugucccuuuucuuuuuu-3'” here?
**A.** Its ring closure, halflife is 21.7 min.

**Q.** For “DNA 5'-Cy5-tccagaggcttcatctccggctccactggcT(biotin)ccatcgcctccgtccctggctccatcattgccatctgtcccttttcttttttcctcttcttc-3' / RNA 5'-Cy3-agccucuggagaagaagaggaaaaaagaaaagggacagauggcaaugauggagccagggacggaggcgauggagccaguggagccggagauga-3'”, which ring closure, halflife is on record?
**A.** Its ring closure, halflife is 10.3 min.
